Converted amounts (≈) assume the structure as drawn.
What was measured:
[1] = for Observations: pH 6.5
Description: The polymer is a poorly aqueous soluble non-ionizable polymer. […] An appropriate PBS solution is an aqueous solution comprising 20 mM sodium phosphate (Na2HPO4), 47 mM potassium phosphate (KH2PO4), 87 mM NaCl, and 0.2 mM KCl, adjusted to pH 6.5 with NaOH. A test to determine whether the polymer is poorly aqueous soluble may be performed as follows. The polymer is initially present in bulk powder form with average particle sizes of greater than about 1 micron. The polymer alone is administered at a concentration of 0.2 mg/mL to the PBS solution and stirred for approximately 1 hour at room temperature. Next, a nylon 0.45 μm filter is weighed, and the polymer solution is filtered. The filter is dried overnight at 40° C., and weighed the following morning. The amount of polymer dissolved is calculated from the amount of polymer added to the PBS solution minus the amount of polymer remaining on the filter (mg). […] First, 0.2 mg/mL of the polymer was added to a PBS solution consisting of 20 mM Na2HPO4, 47 mM KH2PO4, 87 mM NaCl, and 0.2 mM KCl, adjusted to pH 6.5 with NaOH. The polymer was stirred in the PBS solution for approximately 1 hour at room temperature. Next, the polymer solution was filtered through a nylon 0.45 μm filter that was weighed dry prior to filtration. The filter was dried overnight at 40° C., and weighed the following morning. The amount of soluble polymer was calculated from the amount of polymer added to form the polymer solution minus the amount of polymer remaining on the filter.

[2] = Aqueous solubility of the drugs; format: physicochemical; conditions: water
[3] = Log P of Drug 1; format: physicochemical; conditions: octanol/water
Description: The first property of hydrophobic drugs is that they are extremely hydrophobic. Log P, defined as the base 10 logarithm of the ratio of the drug solubility in octanol to the drug solubility in water, is a widely accepted measure of hydrophobicity. By “extremely hydrophobic” is meant that the Log P value of the drug is at least 4.0, preferably at least 4.5, and most preferably at least 5.0. Log P may be measured experimentally or calculated using methods known in the art. When using a calculated value for Log P, the highest value calculated using any generally accepted method for calculating Log P is used. Calculated Log P values are often referred to by the calculation method, such as Clog P, Alog P, and Mlog P. The Log P may also be estimated using fragmentation methods, such as Crippen's fragmentation method (27 J. Chem. Inf. Comput. Sci. 21 (1987)); Viswanadhan's fragmentation method (29 J. Chem. Inf. Comput. Sci. 163 (1989)); or Broto's fragmentation method (19 Eur. J. Med. Chem.-Chim. Theor. 71 (1984). Preferably the Log P value is calculated by using the average value estimated using Crippen's, Viswanadhan's, and Broto's fragmentation methods.

[4] = Free drug analysis, 100,000-dalton cutoff filtration and HPLC; format: physicochemical; conditions: 2.5 mgA/mL suspension in deionized water with dextrose, about 300 mOsm
Description: The suspension was filtered using a centrifuge tube filter with a 100,000-dalton molecular-weight cutoff. The filtrate solution was assayed by high-performance liquid chromatography (HPLC).

ethylcellulose
Amount Soluble at pH 6.5 [1]: <0.001 mg/mL | Observations [1]: Fine particle

COCCN(C)Cc1nc(Cc2cccc(C)c2)n(-c2ccc(S(N)(=O)=O)cc2F)n1 [Drug 4]
solubility [2]: ~740 µg/mL (≈ 1650 µM)

Cc1onc(-c2ccccc2)c1-c1ccc(S(N)(=O)=O)cc1 [Drug 1, 4-(5-methyl-3-phenyl-4-isoxazolyl) benzenesulfonamide]
solubility [2]: ~10 µg/mL (≈ 31.8 µM) | logP [3]: ~3 | Free Drug [4]: 11 µg/mL

CCNC1CN(CCCOC)S(=O)(=O)c2sc(S(N)(=O)=O)cc21 (centres unmarked) [Drug 5, brinzolamide, reference compound]
solubility [2]: ~490 µg/mL (≈ 1280 µM)

cellulose triacetate
Amount Soluble at pH 6.5 [1]: <0.001 mg/mL | Observations [1]: Fine particle

Cc1ccc(C)c(Cc2nc(CO)nn2-c2ccc(S(N)(=O)=O)cc2F)c1 [Drug 3]
solubility [2]: ~650 µg/mL (≈ 1660 µM)

CC[C@@H]1C[C@H](N(Cc2cc(C(F)(F)F)cc(C(F)(F)F)c2)C(C)=O)c2cc(C(F)(F)F)ccc2N1C(=O)OC(C)C [Drug 2, [2R,4S] 4-[acetyl-(3,5-bis-trifluoromethyl-benzyl)-amino]-2-ethyl-6-trifluoromethyl-3,4-dihydro-2H-quinoline-1-carboxylic acid isopropyl ester]
solubility [2]: < 1 µg/mL

Source: US9233078B2, “Nanoparticles comprising a non-ionizable polymer and an Amine-functionalized methacrylate copolymer” (Bend Research, Inc., priority 2007, dated 2016)
